“Also recorded” adds a separate entry of the source.
How the values were obtained:
CNS function (NEUROCART) = assay type: in vivo, human (healthy volunteers)
Method: (§1) A clinical study was developed to evaluate safety, tolerability, pharmacokinetics, and pharmacodynamics of Compound 1 at plasma steady-state in 40 healthy human volunteers. […].
(§2) Pharmacodynamic analyses included the NEUROCART® assessments, cognitive assessments Visual Verbal Learning Task (VVLT), and quantitative electroencephalography (qEEG). All PD analyses were based on the PD Analysis Set. For all PD endpoints, the baseline was calculated as average of the Day −1 measurements.
(§3) NEUROCART®, VVLT, and qEEG assessments were listed and summarized (absolute and change from baseline) using descriptive statistics at baseline and at each post-baseline time point. To establish whether significant treatment effects could be detected on the repeatedly measured NEUROCART® parameters, each parameter was analyzed with a mixed model analysis of covariance (ANCOVA) with treatment, time, and treatment by time as fixed factors, participant as a random factor, and the (average) baseline measurement as a covariate.

[1] = test system: memory (Visual Verbal Learning Task); assay type: in vivo, human (healthy volunteers); settings: oral QD 12 days; dose and day in value
Method: as §1, §2, §3

[2] = molecular target: human GABAA receptor α2/β2/γ2 (Homo sapiens, UniProt P18507+P47869); test: SyncroPatch platform, PAM mode, GABAA α2/β2/γ2
human GABAA receptor α2/β2/γ2, sequence (P47869 29-451): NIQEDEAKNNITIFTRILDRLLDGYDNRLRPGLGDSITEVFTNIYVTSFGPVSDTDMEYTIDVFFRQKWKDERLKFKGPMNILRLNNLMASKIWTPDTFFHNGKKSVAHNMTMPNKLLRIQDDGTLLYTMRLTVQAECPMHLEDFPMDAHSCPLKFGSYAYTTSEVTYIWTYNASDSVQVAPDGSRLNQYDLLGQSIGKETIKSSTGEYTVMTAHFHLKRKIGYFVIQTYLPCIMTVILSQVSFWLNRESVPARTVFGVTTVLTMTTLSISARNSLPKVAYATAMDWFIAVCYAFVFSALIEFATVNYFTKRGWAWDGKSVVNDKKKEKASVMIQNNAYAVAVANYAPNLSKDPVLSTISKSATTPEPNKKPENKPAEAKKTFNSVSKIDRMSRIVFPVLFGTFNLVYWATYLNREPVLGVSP
human GABAA receptor α2/β2/γ2, sequence (P18507 40-475): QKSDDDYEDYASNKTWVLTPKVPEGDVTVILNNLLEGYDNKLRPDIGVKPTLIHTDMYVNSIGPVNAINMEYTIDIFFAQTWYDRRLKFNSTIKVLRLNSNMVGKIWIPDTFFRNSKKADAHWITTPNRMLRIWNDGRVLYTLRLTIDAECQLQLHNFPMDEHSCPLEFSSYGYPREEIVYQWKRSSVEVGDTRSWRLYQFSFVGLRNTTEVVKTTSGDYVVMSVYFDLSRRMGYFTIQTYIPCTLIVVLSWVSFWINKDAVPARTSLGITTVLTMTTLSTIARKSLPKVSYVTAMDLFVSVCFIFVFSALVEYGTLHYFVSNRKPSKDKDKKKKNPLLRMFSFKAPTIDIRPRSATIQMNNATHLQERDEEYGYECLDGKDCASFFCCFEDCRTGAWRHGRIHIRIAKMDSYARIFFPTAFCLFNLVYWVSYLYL
human GABAA receptor α2/β2/γ2, sequence (P47870 25-512 partner limits assumed): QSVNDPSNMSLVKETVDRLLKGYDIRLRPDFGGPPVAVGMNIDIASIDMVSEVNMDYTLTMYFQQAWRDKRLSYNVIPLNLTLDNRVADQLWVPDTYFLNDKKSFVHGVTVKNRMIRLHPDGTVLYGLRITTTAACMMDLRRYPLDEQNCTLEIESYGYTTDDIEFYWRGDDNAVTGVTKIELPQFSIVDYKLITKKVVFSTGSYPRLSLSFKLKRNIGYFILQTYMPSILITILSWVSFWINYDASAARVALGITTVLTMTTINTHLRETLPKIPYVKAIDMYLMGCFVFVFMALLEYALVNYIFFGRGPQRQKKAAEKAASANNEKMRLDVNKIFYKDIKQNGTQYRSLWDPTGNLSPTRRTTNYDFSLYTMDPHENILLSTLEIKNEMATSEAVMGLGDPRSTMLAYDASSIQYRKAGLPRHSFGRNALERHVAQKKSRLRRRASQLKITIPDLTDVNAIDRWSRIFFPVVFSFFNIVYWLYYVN

[3] = molecular target: human GABAA receptor α3/β3/γ2 (Homo sapiens, UniProt P18507+P34903); test: SyncroPatch platform, PAM mode, GABAA α3/β3/γ2
human GABAA receptor α3/β3/γ2, sequence (P34903 29-492): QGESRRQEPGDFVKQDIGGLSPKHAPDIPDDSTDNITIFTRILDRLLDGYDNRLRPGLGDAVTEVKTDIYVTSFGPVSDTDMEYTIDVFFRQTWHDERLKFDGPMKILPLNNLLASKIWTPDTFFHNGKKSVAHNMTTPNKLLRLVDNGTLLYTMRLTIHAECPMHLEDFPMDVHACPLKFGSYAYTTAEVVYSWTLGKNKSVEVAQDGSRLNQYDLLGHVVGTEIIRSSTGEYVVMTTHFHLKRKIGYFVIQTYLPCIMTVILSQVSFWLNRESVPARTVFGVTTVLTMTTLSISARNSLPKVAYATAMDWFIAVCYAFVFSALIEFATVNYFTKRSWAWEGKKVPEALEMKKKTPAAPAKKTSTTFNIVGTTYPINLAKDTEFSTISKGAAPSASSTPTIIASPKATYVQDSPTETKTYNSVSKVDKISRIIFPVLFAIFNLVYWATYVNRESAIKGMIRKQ
human GABAA receptor α3/β3/γ2, sequence (P18507 40-475): as the sequence (P18507 40-475) above
human GABAA receptor α3/β3/γ2, sequence (P28472 26-473 partner): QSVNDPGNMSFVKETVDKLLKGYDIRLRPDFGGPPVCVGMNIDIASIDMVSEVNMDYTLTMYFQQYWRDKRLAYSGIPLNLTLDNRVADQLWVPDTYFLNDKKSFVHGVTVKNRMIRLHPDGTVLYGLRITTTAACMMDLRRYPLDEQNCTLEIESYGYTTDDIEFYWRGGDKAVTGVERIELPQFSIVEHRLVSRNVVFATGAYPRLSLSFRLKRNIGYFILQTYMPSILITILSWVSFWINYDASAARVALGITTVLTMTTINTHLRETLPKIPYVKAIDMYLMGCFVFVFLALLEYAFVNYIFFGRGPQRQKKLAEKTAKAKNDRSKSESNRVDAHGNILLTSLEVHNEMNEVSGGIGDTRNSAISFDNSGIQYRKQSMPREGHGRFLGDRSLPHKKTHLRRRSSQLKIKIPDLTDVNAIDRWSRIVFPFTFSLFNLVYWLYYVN

[4] = molecular target: human GABAA receptor α5/β3/γ2 (Homo sapiens, UniProt P18507+P31644); test: SyncroPatch platform, PAM mode, GABAA α5/β3/γ2
human GABAA receptor α5/β3/γ2, sequence (P31644 32-462): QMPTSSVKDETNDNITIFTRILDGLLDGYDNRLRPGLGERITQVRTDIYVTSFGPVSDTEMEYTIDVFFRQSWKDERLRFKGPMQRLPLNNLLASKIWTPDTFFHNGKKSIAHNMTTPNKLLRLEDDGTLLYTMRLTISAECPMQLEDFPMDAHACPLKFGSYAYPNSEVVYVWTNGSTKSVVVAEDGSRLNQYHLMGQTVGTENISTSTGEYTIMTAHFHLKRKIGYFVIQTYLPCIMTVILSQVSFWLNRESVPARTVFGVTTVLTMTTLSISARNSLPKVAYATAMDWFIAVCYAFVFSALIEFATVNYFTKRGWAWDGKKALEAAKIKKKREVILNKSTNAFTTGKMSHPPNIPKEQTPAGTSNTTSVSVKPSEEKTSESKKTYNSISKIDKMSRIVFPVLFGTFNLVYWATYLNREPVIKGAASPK
human GABAA receptor α5/β3/γ2, sequence (P18507 40-475): as the sequence (P18507 40-475) above
human GABAA receptor α5/β3/γ2, sequence (P28472 26-473 partner): as the sequence (P28472 26-473 partner) above

EEG spectral bands = test: Pharmaco-EEG spectral analysis in wirelessly implanted rats
[5] = test system: anxiety (elevated plus maze); test: Elevated plus maze (EPM)
[6] = molecular target: human GABAA receptor α1/β3/γ2 (Homo sapiens, UniProt P14867+P18507); test: SyncroPatch platform, PAM mode, GABAA α1/β3/γ2
human GABAA receptor α1/β3/γ2, sequence (P14867 28-456): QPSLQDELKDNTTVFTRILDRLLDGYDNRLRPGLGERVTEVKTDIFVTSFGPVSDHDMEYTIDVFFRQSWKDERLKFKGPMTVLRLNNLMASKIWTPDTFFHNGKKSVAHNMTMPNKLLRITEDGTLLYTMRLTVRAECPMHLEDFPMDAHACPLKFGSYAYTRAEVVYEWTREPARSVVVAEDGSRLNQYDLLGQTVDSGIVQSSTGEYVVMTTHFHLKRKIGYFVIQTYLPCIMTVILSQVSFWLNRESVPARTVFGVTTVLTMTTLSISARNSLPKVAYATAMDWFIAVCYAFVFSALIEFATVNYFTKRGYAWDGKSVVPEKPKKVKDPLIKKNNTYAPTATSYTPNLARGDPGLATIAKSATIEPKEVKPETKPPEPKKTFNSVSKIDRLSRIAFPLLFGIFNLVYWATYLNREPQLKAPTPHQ
human GABAA receptor α1/β3/γ2, sequence (P18507 40-475): as the sequence (P18507 40-475) above
human GABAA receptor α1/β3/γ2, sequence (P28472 26-473 partner): as the sequence (P28472 26-473 partner) above

[7] = oral QD 12 days, dose and day in value
[8] = participants receiving Compound 1
[9] = Frontal-Parietal cortex, Quiet Wake

CC(C)(O)c1cnn2c(-c3ccc(F)c(-c4c(F)cccc4C#N)c3)cnc2n1 [Compound 1, 2′,6-difluoro-5′-(3-(2-hydroxypropan-2-yl)imidazo[1,2-b][1,2,4]triazin-7-yl)-[1,1′-biphenyl]-2-carbonitrile]
consistency of effects on SPV, body sway, VAS perception and feeling high (CNS function (NEUROCART); 1.5 mg Cohort): less consistent effects | VAS mood or VAS calmness (CNS function (NEUROCART); oral QD 12 days, any dose, Day 1 or Day 12): Did not affect VAS mood or VAS calmness at any dose on either Day 1 or Day 12 | VAS external perception and VAS internal perception (Bowdle) (CNS function (NEUROCART); [7]): remained unaffected at 1.0 mg, 2.0 mg, and 5.0 mg but significantly increased at 1.5 mg on Day 1 and Day 12 | VAS feeling high (Bowdle) (CNS function (NEUROCART); [7]): significantly increased at 0.5 mg on Day 1 and Day 12, and at 1.5 mg on Day 12 with no apparent dose-related effect | body sway (CNS function (NEUROCART); [7]): significantly increased body sway at 5.0 mg on Day 1; also recorded: Significantly increased body sway at the highest dose level of 5.0 mg on Day 1 but not on Day 12; also recorded: significantly increased body sway at 5.0 mg acutely | left pupil/iris ratio (CNS function (NEUROCART); [7]): Significantly reduced left pupil/iris ratio at 1.0 mg, 1.5 mg, and 5.0 mg on Day 1 but not on Day 12 | saccadic reaction time (CNS function (NEUROCART); [7]): Significantly increased saccadic reaction time only at the highest dose level of 5.0 mg on Day 1, but not on Day 12 | smooth pursuit eye movements (CNS function (NEUROCART); [7]): Significantly decreased smooth pursuit eye movements at 0.5 mg, 1.5 mg, and 5.0 mg on Day 1 but not on Day 12 | delayed word recognition [1]: Significantly decreased delayed word recognition but not immediate recall or delayed recall at 2.0 mg on Day 12, but not on Day 1 | immediate recall and delayed recall/recognition [1]: Significantly decreased immediate recall and decreased delayed recall/recognition at 5.0 mg on Day 1, but not on Day 12 | reaction time for delayed word recognition [1]: Significantly increased reaction time for delayed word recognition at 1.5 mg on Day 1, but not on Day 12; also recorded: inconsistent effects on reaction time for delayed word recognition up to 1.5 mg | EC50 [2]: 800 pM | Emax [2]: 50% | EC50 [3]: 2470 pM | Emax [3]: 113% | moderate somnolence (2.0 mg and 5.0 mg): Two TEAEs of moderate somnolence | moderate balance disorder (5.0 mg): 1 TEAE of moderate balance disorder | concomitant medications or physical examination findings (0.5-5.0 mg oral QD 12 days): No consistent differences | mean QTcF increase (0.5-5.0 mg oral QD 12 days): No clinically relevant increase | severe TEAEs or SAEs (0.5-5.0 mg oral QD 12 days): No severe TEAEs or serious adverse events (SAEs) occurred | suicidal ideation or behaviors (C-SSRS) (0.5-5.0 mg oral QD 12 days): No positive responses | participants with TEAEs of moderate severity (5/40 participants): 12.5% | participants with TEAEs of mild severity (34/40 participants): 85.0% | number of TEAEs of moderate severity (in 5/40 participants): 6 | dizziness [8]: 20.0% | postural dizziness [8]: 30.0% | incidence of somnolence versus placebo (pooled placebo): approximately twice as high as the placebo-treated participants | EC50 [4]: 200 pM | Emax [4]: 96% | EEG spectral power change (EEG spectral bands; Frontal-Frontal cortex, Active and Quiet Wake): increased beta, low and high gamma | EEG spectral power change (EEG spectral bands; Frontal-Frontal cortex, NREM): decreased theta and alpha; also recorded: decreased delta and increased low and high gamma | duration of EEG effects (EEG spectral bands; Frontal-Frontal cortex, NREM, Compound 1 high dose PO, Lorazepam 1 mg/kg IP): 48 h | EEG spectral power change (EEG spectral bands; Frontal-Frontal cortex, REM): increased beta | EEG spectral power change (EEG spectral bands; Frontal-Parietal cortex, Active Wake): decreased alpha but increased beta, low and high gamma | EEG spectral power change (EEG spectral bands; Frontal-Parietal cortex, NREM): decreased delta, theta, and alpha; also recorded: increase in low and high gamma | duration of delta and theta effects (EEG spectral bands; Frontal-Parietal cortex, NREM): 48 h | duration of increase in low and high gamma (EEG spectral bands; Frontal-Parietal cortex, NREM): 48 h | EEG spectral power change (EEG spectral bands; [9]): decreased delta but increased beta, low and high gamma | duration of EEG effects (EEG spectral bands; [9]): 48 h | EEG spectral power change (EEG spectral bands; Frontal-Parietal cortex, REM): decreased theta and alpha but increased beta and low gamma | decrease in delta/theta power (EEG spectral bands; Non-REM sleep): 40% | delta and theta power (EEG spectral bands; Non-REM sleep, all doses, ANOVA w Dunnett's): significant decreases in delta and theta power across all doses | EEG profile (EEG spectral bands; oral dosing, rats): EEG changes indicative of an anxiolytic profile | sedation / anxiolytic profile (EEG spectral bands; sleep-wake pattern and EEG profile analysis): non-sedative anxiolytic profile | EEG spectral power change (EEG spectral bands; summary, Active Wake): increased low gamma and decreased alpha (Parietal ctx) | EEG spectral power change (EEG spectral bands; summary, Non-REM): suppressed power in low frequencies (Delta, Theta, and Alpha) and increased higher frequencies (gamma) | EEG spectral power change (EEG spectral bands; summary, Quiet Wake): increased beta and low gamma | EEG spectral power change (EEG spectral bands; summary, REM): increased beta | anxiolytic effect, chronic dosing ([5]; once daily for fourteen days, tested 1 hr after last dose): anxiolytic-like in rodents after acute and sub-chronic (14 days) dosing without any loss of effect | effect compared with reference anxiolytic chlordiazepoxide ([5]; oral): equivalent to what was demonstrated by the reference anxiolytic compound, chlordiazepoxide | distance traveled in the open arms ([5]; oral, 0.1, 0.3 and 1 mg/kg): increased distance traveled in the open arms | Cl- flux / activity at α1 subtype [6]: blocking α1; also recorded: did not drive Cl-flux; also recorded: does not potentiate the α1 GABAA receptor subtype
